≈ marks a conversion by molar mass, not a printed value. Calls of active or inactive are those of the source. The rule behind the calls is not given here.

In one assay the test system is Salmonella typhimurium. Description: Antibacterial activity against Salmonella enterica subsp. enterica serovar Typhimurium MTCC 98 after 24 hr two-fold serial dilution method. The format is functional. The note with it: MTCC 98, 24 h.
In another assay the test system is Bacillus subtilis. Description: Antibacterial activity against Bacillus subtilis MTCC 121 after 24 hr two-fold serial dilution method. Format: functional. The note with it: MTCC 121, 24 h.
The subject of a further assay is Pseudomonas aeruginosa. The assay is described as follows: Antibacterial activity against Pseudomonas aeruginosa MTCC 741 after 24 hr two-fold serial dilution method. Format: functional. The note with it: MTCC 741, 24 h.
In a further assay the test system is Klebsiella pneumoniae. The assay is described as follows: Antibacterial activity against Klebsiella pneumoniae MTCC 2272 after 24 hr two-fold serial dilution method. The format is functional. The following applies: MTCC 2272, 24 h.
The test system of another assay is Salmonella typhi. The assay is described as follows: Antibacterial activity against Salmonella enterica subsp. enterica serovar Typhi MTCC 531 after 24 hr two-fold serial dilution method. Format: functional. The note with it: MTCC 531, 24 h.
The test system of another assay is Escherichia coli. The assay is described as follows: Antibacterial activity against Escherichia coli MTCC 443 after 24 hr two-fold serial dilution method. The following applies: MTCC 443, 24 h. Format: functional.
For a further assay, the system named is Staphylococcus aureus. The assay is described as follows: Antibacterial activity against Staphylococcus aureus MTCC 96 after 24 hr two-fold serial dilution method. The format is functional. The note with it: MTCC 96, 24 h.
Another assay has as its system Vibrio cholerae. Description: Antibacterial activity against Vibrio cholerae after 24 hr two-fold serial dilution method. Format: functional.
A further assay concerns Candida albicans. The assay is described as follows: Antifungal activity against Candida albicans two-fold serial dilution method. Format: functional.
The test system of assay [1] is Cryptococcus neoformans. Description: Antifungal activity against Cryptococcus neoformans after 72 to 96 hr by two-fold serial dilution method. Format: functional.
The test system of the next assay is Aspergillus niger. Description: Antifungal activity against Aspergillus niger after 72 to 96 hr by two-fold serial dilution method. The format is functional.
The test system of the next assay is Fusarium oxysporum. The assay is described as follows: Antifungal activity against Fusarium oxysporum after 72 to 96 hr by two-fold serial dilution method. Format: functional.
For the next assay, the system named is Aspergillus flavus. The assay is described as follows: Antifungal activity against Aspergillus flavus after 72 to 96 hr by two-fold serial dilution method. Format: functional.
In assay [2] the test system is Cryptococcus neoformans. The assay is described as follows: Antifungal activity against Cryptococcus neoformans at 200 ug/ml after 72 to 96 hr by two-fold serial dilution method. Format: functional, organism-based.

For orientation: MIC means the lowest concentration found to suppress growth. Low values mean greater potency, high ones weaker potency. Turning to `CN[C@@H]1[C@H](O[C@H]2[C@H](O[C@H]3[C@H](O)[C@@H](O)[C@H](N=C(N)N)[C@@H](O)[C@@H]3N=C(N)N)O[C@@H](C)[C@]2(O)C=O)O[C@@H](CO)[C@H](O)[C@H]1O` [STREPTOMYCIN], the MIC with Salmonella typhimurium was found to be 25 µg/mL (≈ 43 µM); against Bacillus subtilis, 12.5 µg/mL (≈ 21.5 µM); against Pseudomonas aeruginosa it was 50 µg/mL (≈ 86 µM); with Klebsiella pneumoniae, 20 µg/mL (≈ 34.4 µM); against Salmonella typhi it was 25 µg/mL (≈ 43 µM); with Escherichia coli, 50 µg/mL (≈ 86 µM). In addition, the MIC in the assay on Staphylococcus aureus amounted to 25 µg/mL (≈ 43 µM); in the assay with Vibrio cholerae, 50 µg/mL (≈ 86 µM).
For `Cc1ccc(C2NC(c3ccc(C)cc3)C3CCCC2C3=NNC(=O)c2ccc(N)cc2)cc1` (configuration not stated), the minimum inhibitory concentration (MIC) stood at 200 µg/mL (≈ 442 µM) against Salmonella typhimurium; 200 µg/mL (≈ 442 µM) in the assay on Candida albicans; 100 µg/mL (≈ 221 µM) with Cryptococcus neoformans [1]; 100 µg/mL (≈ 221 µM) against Bacillus subtilis; 200 µg/mL (≈ 442 µM) against Pseudomonas aeruginosa; 200 µg/mL (≈ 442 µM) in the assay with Klebsiella pneumoniae. Also, the MIC came out at 100 µg/mL (≈ 221 µM) with Aspergillus niger; 100 µg/mL (≈ 221 µM) with Salmonella typhi; 100 µg/mL (≈ 221 µM) in the assay with Escherichia coli; 100 µg/mL (≈ 221 µM) with Fusarium oxysporum; 200 µg/mL (≈ 442 µM) in the assay with Aspergillus flavus; 200 µg/mL (≈ 442 µM) with Staphylococcus aureus. The lowest concentration to inhibit growth with Vibrio cholerae (MIC) was 200 µg/mL (≈ 442 µM).
With `COc1ccc(C2NC(c3ccc(OC)cc3)C3CCCC2C3=NNC(=O)c2ccc(N)cc2)cc1` (configuration not stated), the minimum inhibitory concentration (MIC) against Salmonella typhimurium worked out at 200 µg/mL (≈ 413 µM); in the assay with Candida albicans, 200 µg/mL (≈ 413 µM); against Cryptococcus neoformans [1], 200 µg/mL (≈ 413 µM); against Bacillus subtilis, 100 µg/mL (≈ 206 µM); in the assay on Pseudomonas aeruginosa, 200 µg/mL (≈ 413 µM); in the assay with Klebsiella pneumoniae, 200 µg/mL (≈ 413 µM). Further, the minimal inhibitory concentration (MIC) was 100 µg/mL (≈ 206 µM) in the assay with Aspergillus niger; 100 µg/mL (≈ 206 µM) in the assay on Salmonella typhi; 100 µg/mL (≈ 206 µM) in the assay on Escherichia coli; 100 µg/mL (≈ 206 µM) with Fusarium oxysporum; 50 µg/mL (≈ 103 µM) with Aspergillus flavus; 100 µg/mL (≈ 206 µM) in the assay on Staphylococcus aureus. This compound also yielded an MIC in the assay on Vibrio cholerae of 50 µg/mL (≈ 103 µM).
For `Nc1ccc(C(=O)NN=C2C3CCCC2C(c2ccccc2)NC3c2ccccc2)cc1` (configuration not stated), the MIC was 200 µg/mL (≈ 471 µM) in the assay on Salmonella typhimurium; 100 µg/mL (≈ 236 µM) with Bacillus subtilis; 200 µg/mL (≈ 471 µM) with Pseudomonas aeruginosa; 50 µg/mL (≈ 118 µM) against Klebsiella pneumoniae; 200 µg/mL (≈ 471 µM) against Salmonella typhi; 200 µg/mL (≈ 471 µM) with Escherichia coli. Besides, the MIC against Fusarium oxysporum turned out to be 200 µg/mL (≈ 471 µM); against Aspergillus flavus it was 200 µg/mL (≈ 471 µM); in the assay on Staphylococcus aureus it was 200 µg/mL (≈ 471 µM); in the assay on Vibrio cholerae, 100 µg/mL (≈ 236 µM). The result in the assay on Cryptococcus neoformans [2] was inactive.
Regarding `Nc1ccc(C(=O)NN=C2C3CCCC2C(c2ccc(Cl)cc2)NC3c2ccc(Cl)cc2)cc1` (configuration not stated), the minimum inhibitory concentration (MIC) with Salmonella typhimurium came to 200 µg/mL (≈ 405 µM); with Candida albicans, 100 µg/mL (≈ 203 µM); in the assay on Cryptococcus neoformans [1], 200 µg/mL (≈ 405 µM); against Bacillus subtilis, 50 µg/mL (≈ 101 µM); in the assay with Pseudomonas aeruginosa, 100 µg/mL (≈ 203 µM); in the assay with Klebsiella pneumoniae, 200 µg/mL (≈ 405 µM). Moreover, the MIC against Aspergillus niger was found to be 50 µg/mL (≈ 101 µM); against Salmonella typhi, 200 µg/mL (≈ 405 µM); against Escherichia coli, 50 µg/mL (≈ 101 µM); with Fusarium oxysporum, 200 µg/mL (≈ 405 µM); in the assay with Aspergillus flavus it was 100 µg/mL (≈ 203 µM); with Staphylococcus aureus, 50 µg/mL (≈ 101 µM). The compound further displayed a minimal inhibitory concentration (MIC) in the assay with Vibrio cholerae of 100 µg/mL (≈ 203 µM).
For `Nc1ccc(C(=O)NN=C2C3CCCC2C(c2ccc(F)cc2)NC3c2ccc(F)cc2)cc1` (configuration not stated), the MIC in the assay with Salmonella typhimurium is 100 µg/mL (≈ 217 µM); in the assay on Candida albicans, 100 µg/mL (≈ 217 µM); in the assay with Cryptococcus neoformans [1] it was 200 µg/mL (≈ 434 µM); with Bacillus subtilis, 25 µg/mL (≈ 54.3 µM); against Pseudomonas aeruginosa, 200 µg/mL (≈ 434 µM); in the assay with Klebsiella pneumoniae, 50 µg/mL (≈ 109 µM). Moreover, the MIC came to 100 µg/mL (≈ 217 µM) in the assay on Aspergillus niger; 100 µg/mL (≈ 217 µM) in the assay on Salmonella typhi; 100 µg/mL (≈ 217 µM) in the assay with Escherichia coli; 50 µg/mL (≈ 109 µM) with Fusarium oxysporum; 200 µg/mL (≈ 434 µM) in the assay on Aspergillus flavus; 50 µg/mL (≈ 109 µM) against Staphylococcus aureus. Also, the MIC in the assay on Vibrio cholerae was found to be 50 µg/mL (≈ 109 µM).
Turning to `C[C@@H]1[C@H](O)[C@@H](C)/C=C/C=C/C=C/C=C/C=C/C=C/C=C/[C@H](O[C@@H]2O[C@H](C)[C@@H](O)[C@H](N)[C@@H]2O)C[C@@H]2O[C@](O)(C[C@@H](O)C[C@@H](O)[C@H](O)CC[C@@H](O)C[C@@H](O)CC(=O)O[C@H]1C)C[C@H](O)[C@H]2C(=O)O` [AMPHOTERICIN B], the MIC with Candida albicans amounted to 25 µg/mL (≈ 27.1 µM); against Cryptococcus neoformans [1], 25 µg/mL (≈ 27.1 µM); against Aspergillus niger, 50 µg/mL (≈ 54.1 µM); with Fusarium oxysporum it was 25 µg/mL (≈ 27.1 µM); against Aspergillus flavus, 50 µg/mL (≈ 54.1 µM).
Consider `Nc1ccc(C(=O)NN=C2C3CCCC2C(c2ccccc2Cl)NC3c2ccccc2Cl)cc1` (configuration not stated), for which the MIC against Salmonella typhimurium was 50 µg/mL (≈ 101 µM); in the assay with Candida albicans it was 200 µg/mL (≈ 405 µM); against Cryptococcus neoformans [1], 100 µg/mL (≈ 203 µM); against Bacillus subtilis, 200 µg/mL (≈ 405 µM); in the assay with Pseudomonas aeruginosa, 100 µg/mL (≈ 203 µM); against Klebsiella pneumoniae it was 50 µg/mL (≈ 101 µM). Moreover, the minimum inhibitory concentration (MIC) turned out to be 100 µg/mL (≈ 203 µM) in the assay with Aspergillus niger; 100 µg/mL (≈ 203 µM) against Salmonella typhi; 100 µg/mL (≈ 203 µM) against Escherichia coli; 100 µg/mL (≈ 203 µM) against Fusarium oxysporum; 200 µg/mL (≈ 405 µM) against Aspergillus flavus; 200 µg/mL (≈ 405 µM) against Staphylococcus aureus. The compound also came in with an MIC in the assay with Vibrio cholerae of 50 µg/mL (≈ 101 µM).
Regarding `Nc1ccc(C(=O)NN=C2C3CCCC2C(c2ccc(Br)cc2)NC3c2ccc(Br)cc2)cc1` (configuration not stated), the MIC in the assay with Salmonella typhimurium turned out to be 200 µg/mL (≈ 343 µM); against Candida albicans it was 200 µg/mL (≈ 343 µM); against Cryptococcus neoformans [1] it was 100 µg/mL (≈ 172 µM); in the assay with Bacillus subtilis it was 200 µg/mL (≈ 343 µM); in the assay with Pseudomonas aeruginosa, 50 µg/mL (≈ 85.9 µM); against Klebsiella pneumoniae, 200 µg/mL (≈ 343 µM). The MIC is 50 µg/mL (≈ 85.9 µM) with Aspergillus niger; 50 µg/mL (≈ 85.9 µM) in the assay on Salmonella typhi; 100 µg/mL (≈ 172 µM) in the assay with Escherichia coli; 100 µg/mL (≈ 172 µM) in the assay with Fusarium oxysporum; 100 µg/mL (≈ 172 µM) in the assay on Aspergillus flavus; 50 µg/mL (≈ 85.9 µM) against Staphylococcus aureus. The compound also displayed an MIC in the assay with Vibrio cholerae of 200 µg/mL (≈ 343 µM).

The values above are taken from ChEMBL document CHEMBL3046603, “Synthesis and antibacterial, antifungal activities of some 2r,4c-diaryl-3-azabicyclo[3.3.1]nonan-9-one-4-aminobenzoyl hydrazones” (2012).
